Measurements: patent publication US20100298141A1, “SUBSTITUTED PYRIDINE N-OXIDE HERBICIDES” (E. I. DU PONT DE NEMOURS AND COMPANY, priority 2007, published 2010)

How the values were obtained:
[1] = system: duck salad; test: Test B flooded paddy test; assay type: in vivo, Heteranthera limosa; conditions: Flood, 250 g ai/ha, 13 to 15 days; scale 0 to 100, 0 no effect, 100 complete control
Description: (§1) At time of treatment, test pots were flooded to 3 cm above the soil surface, treated by application of test compounds directly to the paddy water, and then maintained at that water depth for the duration of the test. Treated plants and controls were maintained in a greenhouse for 13 to 15 days, after which time all species were compared to controls and visually evaluated. […] A dash (-) response means no test result.

[2] = system: umbrella sedge; test: Test B flooded paddy test; assay type: in vivo, Cyperus difformis; conditions: Flood, 250 g ai/ha, 13 to 15 days; scale 0 to 100, 0 no effect, 100 complete control
Description: as §1

[3] = system: rice; test: Test B flooded paddy test; assay type: in vivo, Oryza sativa; conditions: Flood, 250 g ai/ha, 13 to 15 days; scale 0 to 100, 0 no effect, 100 complete control
Description: as §1

[4] = system: giant foxtail; test: Test G preemergence test; assay type: in vivo, Setaria faberii; conditions: scale 0 to 100
[5] = system: eastern black nightshade; test: Test G preemergence test; assay type: in vivo, Solanum ptycanthum; conditions: scale 0 to 100
[6] = system: broadleaf signalgrass; test: Test G preemergence test; assay type: in vivo, Brachiaria platyphylla; conditions: scale 0 to 100
[7] = system: spring wheat; test: Test D preemergence test; assay type: in vivo, Triticum aestivum; conditions: scale 0 to 100
Description: (§2) Seeds of plant species selected from annual bluegrass (Poa annua), blackgrass (Alopecurus myosuroides), downy bromegrass (Bromus tectorum), field violet (Viola arvensis), green foxtail (Setaria viridis), Italian ryegrass (Lolium multiflorum), littleseed canarygrass (Phalaris minor), spring wheat (Triticum aestivum), wild oat (Avena fatua), […]), winter barley (Hordeum vulgare), and winter wheat (Triticum aestivum) were planted and treated preemergence with test chemicals formulated in a non-phytotoxic solvent mixture which included a surfactant. […] A dash (-) response means no test result.

[8] = system: Italian ryegrass; test: Test D preemergence test; assay type: in vivo, Lolium multiflorum; conditions: scale 0 to 100
Description: as §2

[9] = system: sorghum; test: Test G preemergence test; assay type: in vivo, Sorghum vulgare; conditions: scale 0 to 100
[10] = system: millet foxtail; test: Test G preemergence test; assay type: in vivo, Setaria italica; conditions: scale 0 to 100
[11] = system: fall panicum; test: Test G preemergence test; assay type: in vivo, Panicum dichotomiflorum; conditions: scale 0 to 100
[12] = system: cotton; test: Test G preemergence test; assay type: in vivo, Gossypium hirsutum; conditions: scale 0 to 100
[13] = system: blackgrass; test: Test D preemergence test; assay type: in vivo, Alopecurus myosuroides; conditions: scale 0 to 100
Description: as §2

[14] = system: windgrass; test: Test D preemergence test; assay type: in vivo, Apera spica-venti; conditions: scale 0 to 100
Description: as §2

[15] = system: lambsquarters; test: Test G preemergence test; assay type: in vivo, Chenopodium album; conditions: scale 0 to 100
[16] = system: annual bluegrass; test: Test D preemergence test; assay type: in vivo, Poa annua; conditions: scale 0 to 100
Description: as §2

[17] = system: goosegrass; test: Test G preemergence test; assay type: in vivo, Eleusine indica; conditions: scale 0 to 100
[18] = system: corn; test: Test G preemergence test; assay type: in vivo, Zea mays; conditions: scale 0 to 100
[19] = system: soybean; test: Test G preemergence test; assay type: in vivo, Glycine max; conditions: scale 0 to 100
[20] = system: tall waterhemp; test: Test G preemergence test; assay type: in vivo, Amaranthus tuberculatos; conditions: scale 0 to 100
[21] = system: field sandbur; test: Test G preemergence test; assay type: in vivo, Cenchrus incertus; conditions: scale 0 to 100
[22] = system: yellow foxtail; test: Test G preemergence test; assay type: in vivo, Pennisetum glaucum; conditions: scale 0 to 100
[23] = system: littleseed canarygrass; test: Test D preemergence test; assay type: in vivo, Phalaris minor; conditions: scale 0 to 100
Description: as §2

[24] = system: field violet; test: Test D preemergence test; assay type: in vivo, Viola arvensis; conditions: scale 0 to 100
Description: as §2

[25] = system: woolly cupgrass; test: Test G preemergence test; assay type: in vivo, Eriochloa villosa; conditions: scale 0 to 100

Structure (SMILES): CC(c1c(C(F)(F)F)nn(C)c1OC(F)F)S(=O)(=O)c1cccc[n+]1[O-] (stereo not shown) [Compound 5]
- Plant response rating, Ducksalad [1]: 90
- Plant response rating, Umbrella Sedge [2]: 100
- Plant response rating, Rice, Transplanted [3]: 70

Structure (SMILES): Cc1cc[n+]([O-])c(S(=O)(=O)C(C)c2c(C(F)(F)F)nn(C)c2Cl)c1 (racemic) [Compound 14]
- Plant response rating, Foxtail, Giant ([4]; 31 g ai/ha): 0
- Plant response rating, Foxtail, Giant ([4]; 62 g ai/ha): 20
- Plant response rating, Foxtail, Giant ([4]; 125 g ai/ha): 100
- Plant response rating, Foxtail, Giant ([4]; 250 g ai/ha): 100
- Plant response rating, Nightshade ([5]; 31 g ai/ha): 0
- Plant response rating, Nightshade ([5]; 62 g ai/ha): 0
- Plant response rating, Nightshade ([5]; 125 g ai/ha): 0
- Plant response rating, Nightshade ([5]; 250 g ai/ha): 55
- Plant response rating, Signalgrass ([6]; 31 g ai/ha): 0
- Plant response rating, Signalgrass ([6]; 62 g ai/ha): 15
- Plant response rating, Signalgrass ([6]; 125 g ai/ha): 20
- Plant response rating, Signalgrass ([6]; 250 g ai/ha): 85
- Plant response rating, Wheat, Spring ([7]; 31 g ai/ha): 0
- Plant response rating, Wheat, Spring ([7]; 62 g ai/ha): 0
- Plant response rating, Wheat, Spring ([7]; 125 g ai/ha): 15
- Plant response rating, Wheat, Spring ([7]; 250 g ai/ha): 20
- Plant response rating, Ryegrass, Italian ([8]; 31 g ai/ha): 0
- Plant response rating, Ryegrass, Italian ([8]; 62 g ai/ha): 0
- Plant response rating, Ryegrass, Italian ([8]; 125 g ai/ha): 0
- Plant response rating, Ryegrass, Italian ([8]; 250 g ai/ha): 100
- Plant response rating, Sorghum ([9]; 31 g ai/ha): 0
- Plant response rating, Sorghum ([9]; 62 g ai/ha): 0
- Plant response rating, Sorghum ([9]; 125 g ai/ha): 20
- Plant response rating, Sorghum ([9]; 250 g ai/ha): 65
- Plant response rating, Foxtail, Millet ([10]; 31 g ai/ha): 0
- Plant response rating, Foxtail, Millet ([10]; 62 g ai/ha): 20
- Plant response rating, Foxtail, Millet ([10]; 125 g ai/ha): 70
- Plant response rating, Foxtail, Millet ([10]; 250 g ai/ha): 100
- Plant response rating, Fall Panicum ([11]; 31 g ai/ha): 15
- Plant response rating, Fall Panicum ([11]; 62 g ai/ha): 50
- Plant response rating, Fall Panicum ([11]; 125 g ai/ha): 70
- Plant response rating, Fall Panicum ([11]; 250 g ai/ha): 100
- Plant response rating, Cotton ([12]; 31 g ai/ha): 0
- Plant response rating, Cotton ([12]; 62 g ai/ha): 0
- Plant response rating, Cotton ([12]; 125 g ai/ha): 0
- Plant response rating, Cotton ([12]; 250 g ai/ha): 0
- Plant response rating, Blackgrass ([13]; 31 g ai/ha): 0
- Plant response rating, Blackgrass ([13]; 62 g ai/ha): 40
- Plant response rating, Blackgrass ([13]; 125 g ai/ha): 40
- Plant response rating, Blackgrass ([13]; 250 g ai/ha): 95
- Plant response rating, Windgrass ([14]; 31 g ai/ha): 0
- Plant response rating, Windgrass ([14]; 62 g ai/ha): 75
- Plant response rating, Windgrass ([14]; 125 g ai/ha): 100
- Plant response rating, Windgrass ([14]; 250 g ai/ha): 100
- Plant response rating, Lambsquarters ([15]; 31 g ai/ha): 0
- Plant response rating, Lambsquarters ([15]; 62 g ai/ha): 0
- Plant response rating, Lambsquarters ([15]; 125 g ai/ha): 0
- Plant response rating, Lambsquarters ([15]; 250 g ai/ha): 40
- Plant response rating, Bluegrass ([16]; 31 g ai/ha): 0
- Plant response rating, Bluegrass ([16]; 62 g ai/ha): 0
- Plant response rating, Bluegrass ([16]; 125 g ai/ha): 65
- Plant response rating, Bluegrass ([16]; 250 g ai/ha): 100
- Plant response rating, Goosegrass ([17]; 31 g ai/ha): 85
- Plant response rating, Goosegrass ([17]; 62 g ai/ha): 95
- Plant response rating, Goosegrass ([17]; 125 g ai/ha): 100
- Plant response rating, Goosegrass ([17]; 250 g ai/ha): 100
- Plant response rating, Corn ([18]; 31 g ai/ha): 0
- Plant response rating, Corn ([18]; 62 g ai/ha): 0
- Plant response rating, Corn ([18]; 125 g ai/ha): 0
- Plant response rating, Corn ([18]; 250 g ai/ha): 35
- Plant response rating, Soybean ([19]; 31 g ai/ha): 0
- Plant response rating, Soybean ([19]; 62 g ai/ha): 0
- Plant response rating, Soybean ([19]; 125 g ai/ha): 0
- Plant response rating, Soybean ([19]; 250 g ai/ha): 0
- Plant response rating, Waterhemp ([20]; 31 g ai/ha): 0
- Plant response rating, Waterhemp ([20]; 62 g ai/ha): 0
- Plant response rating, Waterhemp ([20]; 125 g ai/ha): 0
- Plant response rating, Waterhemp ([20]; 250 g ai/ha): 40
- Plant response rating, Sandbur ([21]; 31 g ai/ha): 0
- Plant response rating, Sandbur ([21]; 62 g ai/ha): 20
- Plant response rating, Sandbur ([21]; 125 g ai/ha): 45
- Plant response rating, Sandbur ([21]; 250 g ai/ha): 85
- Plant response rating, Foxtail, Yellow ([22]; 31 g ai/ha): 0
- Plant response rating, Foxtail, Yellow ([22]; 62 g ai/ha): 0
- Plant response rating, Foxtail, Yellow ([22]; 125 g ai/ha): 95
- Plant response rating, Foxtail, Yellow ([22]; 250 g ai/ha): 95
- Plant response rating, Canarygrass ([23]; 31 g ai/ha): 0
- Plant response rating, Canarygrass ([23]; 62 g ai/ha): 0
- Plant response rating, Canarygrass ([23]; 125 g ai/ha): 15
- Plant response rating, Canarygrass ([23]; 250 g ai/ha): 20
- Plant response rating, Field Violet ([24]; 31 g ai/ha): 0
- Plant response rating, Field Violet ([24]; 62 g ai/ha): 0
- Plant response rating, Field Violet ([24]; 125 g ai/ha): 0
- Plant response rating, Field Violet ([24]; 250 g ai/ha): 45
- Plant response rating, Cupgrass, Woolly ([25]; 31 g ai/ha): 0
- Plant response rating, Cupgrass, Woolly ([25]; 62 g ai/ha): 0
- Plant response rating, Cupgrass, Woolly ([25]; 125 g ai/ha): 70
- Plant response rating, Cupgrass, Woolly ([25]; 250 g ai/ha): 95
